Data reported in patent US20260240761A1, “ORAL FILM UNIT DOSAGE FORM” (SWIPP AB, priority 2023, published 2026).
Counter-ions that a name gives are not always drawn.

Columns and labels:
[1] = Solvent screening: solubility of midazolam hydrochloride in process solvents; type: physicochemical
Procedure: For each solvent, four test tubes were prepared, containing about 1 g solvent and midazolam hydrochloride at amounts of about 0.1 wt %, 1 wt %, 4 wt % and 7 wt %, respectively. The tubes were thoroughly mixed and were then visually observed and photographed. After 15 minutes of resting, they were again visually observed and photographed, and were then mixed again. After another 1 hour, they were finally visually observed and photographed. It was noted whether there were any undissolved solid material remaining, approximately how much, and whether it had sedimented at the bottom or formed a whitish suspension, and if that suspension was translucent or opaque. No analytical method, e.g., HPLC Assay, was used to actually quantify the precise solubilities because the main aim was just to determine whether the midazolam hydrochloride was predominately dissolved or solid, at 4 wt % and 7 wt % respectively, which represent typical levels for the midazolam hydrochloride content in a wet mix. If midazolam hydrochloride was predominately […] at 7 wt %, the solvent was deemed to be potentially very feasible.

[2] = XRPD of sedimented material from the solvent screening; type: physicochemical; details: solvent evaporated at ambient temperature
Procedure: Test tubes prepared with ethanol and ethyl acetate, respectively, corresponding to the last step in Example 14, were prepared and allowed to sediment overnight. The solvents in each sample of sedimented material were slowly evaporated off at ambient temperature and atmospheric pressure. It was then subjected to the XRPD method described in Example 12 except that only steps 1-2 of that method were performed, and that the reference “API raw material” recorded in step 1 was midazolam hydrochloride and not midazolam base.

Structure (SMILES): Cc1ncc2n1-c1ccc(Cl)cc1C(c1ccccc1F)=NC2 [midazolam hydrochloride]
- Visual appearance at last observation ([1]; 1-pentanol, 0.1 wt %): clear
- Visual appearance at last observation ([1]; 1-pentanol, 1 wt %): translucent
- Visual appearance at last observation ([1]; 1-pentanol, 4 wt %): opaque
- Visual appearance at last observation ([1]; 1-pentanol, 7 wt %): opaque
- Visual appearance at last observation ([1]; 2-propanol, 0.1 wt %): clear
- Visual appearance at last observation ([1]; 2-propanol, 1 wt %): translucent
- Visual appearance at last observation ([1]; 2-propanol, 4 wt %): opaque
- Visual appearance at last observation ([1]; 2-propanol, 7 wt %): opaque
- Visual appearance at last observation ([1]; acetone, 0.1, 1, 4 and 7 wt %): clear supernatant over sedimented
- Visual appearance at last observation ([1]; ethanol, 0.1 wt %): clear
- Visual appearance at last observation ([1]; ethanol, 1 wt %): clear
- Visual appearance at last observation ([1]; ethanol, 4 wt %): opaque
- Visual appearance at last observation ([1]; ethanol, 7 wt %): opaque
- Visual appearance at last observation ([1]; ethyl acetate, 0.1 wt %): cloudy
- Visual appearance at last observation ([1]; ethyl acetate, 1 wt %): opaque
- Visual appearance at last observation ([1]; ethyl acetate, 4 wt %): opaque
- Visual appearance at last observation ([1]; ethyl acetate, 7 wt %): opaque
- Solubility (tentative interpretation) ([1]; in 1-pentanol): Solubility is between 0.1-1 wt %
- Solubility (tentative interpretation) ([1]; in 2-propanol): Solubility is between 0.1-1 wt %
- Solubility (tentative interpretation) ([1]; in acetone): Solubility is ≤0.1 wt %. Solvent
- Solubility (tentative interpretation) ([1]; in ethanol): Solubility is between 1-4 wt %.
- Solubility (tentative interpretation) ([1]; in ethyl acetate): Solubility is ≤0.1 wt %. Solvent
- Solubility (tentative interpretation) ([1]; in isobutyl acetate): Solubility is ≤0.1 wt %. Solvent
- Solubility (tentative interpretation) ([1]; in methyl acetate): Solubility is ≤0.1 wt %. Solvent
- Visual appearance at last observation ([1]; isobutyl acetate, 0.1 wt %): cloudy
- Visual appearance at last observation ([1]; isobutyl acetate, 1 wt %): opaque
- Visual appearance at last observation ([1]; isobutyl acetate, 4 wt %): opaque
- Visual appearance at last observation ([1]; isobutyl acetate, 7 wt %): opaque
- Visual appearance at last observation ([1]; methyl acetate, 0.1 wt %): cloudy
- Visual appearance at last observation ([1]; methyl acetate, 1 wt %): opaque
- Visual appearance at last observation ([1]; methyl acetate, 4 wt %): opaque
- Visual appearance at last observation ([1]; methyl acetate, 7 wt %): opaque
- XRPD identity of sedimented material ([2]; sediment from ethanol): a solid crystalline material that was not midazolam hydrochloride
- XRPD identity of sedimented material ([2]; sediment from ethyl acetate): appeared to be identical to midazolam hydrochloride
